# Data: patent US7579353B2, “Pyridinone derivatives against malaria” (Glaxo Group Limited, priority 2005, dated 2009)
# Test system: Plasmodium falciparum
# Assay: In vitro anti-malarial activity against Plasmodium falciparum, IC50 assay / [3H]-hypoxanthine incorporation assay
# Format: cell-based
# Settings: Erythrocyte, parasitized red blood cells, 48 hours
# Description: In Vitro Anti-malarial Activity Against Plasmodium falciparum
# IC50 Assay/[^3H]-Hypoxanthine Assay
# Plasmodium falciparum strains.
# The culture medium comprised RPMI 1640 with 25 mM HEPES, sodium bicarbonate and glutamine (GIBCO™ cat. ref.: 52400), supplemented with 10% of pooled human sera AB (Irvine Scientific, cat. ref.: 5009) and HT supplement (0.15 mM hypoxanthine and 24 μM thymidine), (GIBCO™ cat. ref.: 41065). Human sera were decomplemented 30 min. at 56° C., aliquoted and stored frozen at −20° C. until use in this culture medium.
# Red blood cells O+ stock suspensions were prepared from whole blood bags coming from incomplete blood donation, provided by the Spanish Red Cross (<25 days after sampling). This “whole blood” was aliquoted and stored at 4° C.
# To prepare red blood cells for the assay, the whole blood was centrifuged and washed 3 times with RPMI without serum. The upper phase, containing white blood cells was removed. The washed red blood cells were kept as a 50% suspension in complete medium. The prepared cells were stored at 4° C. and were employed in the assay at any time up to 4 days after preparation.
# Test compounds were dissolved at 2 mg/ml in 100% DMSO on the day of the assay. If necessary, complete dissolution was achieved by gentle heating (the mixture was heated at a temperature <37° C.) and sonication (sonication bath).
# For IC50 determinations, 10 serial 2-fold dilutions were prepared in complete medium in the presence of a constant amount of DMSO.
# Plasmodium falciparum strains were maintained in complete medium at an hematocrit of 5% in continuous culture using a method adapted from Trager and Jensen (1, 2).
# The parasitemia was calculated by counting the percentage of parasitized erythrocytes by optical microscopy. Thin films of blood were made every day from each culture flask, fixed with methanol and stained for 10 min. in Giemsa (Merck, cat ref.: 1.09204) at 10% in buffered water pH 7.2. The glass slides were observed and counted with an optical microscope (Nikon, Eclipse E200) equipped with a 100× immersion oil objective.
# The culture was maintained at an hematocrit of 5%, with a daily change of medium and was diluted when parasitemia had reached about 5%.
# [^3H] Hypoxanthine incorporation assay was conducted using a method adapted from Desjardins et al. (3). The assays were performed in 96 wells flat bottom microplates.
# 1. Serial dilutions of the test compounds (50 μl of a 5× solution/well) were deposited in duplicate. Compounds of the invention were tested in this assay. Chloroquine and Atovaquone were used as control compounds for each assay.
# 3. [^3H]-Hypoxanthine (Amersham Biosciences, cat. ref.: TRK74) was added extemporaneously to the inoculum suspension at a concentration of 1 μCi/ml (equating to […]). 200 μl of the resulting suspension was distributed into each well (other than the control well H12 described below) leading to a final volume of 250 μl per well, at 2% of hematocrit and 0.5% of parasitemia/well.
# 4. In each plate, 2 columns were reserved for control wells: • Column 11: Positive control wells: PRBCs with 0.2% DMSO—(i) to determine DMSO solvent effect on parasite growth (at a final concentration of 0.2%) and (ii) to compare with cultures treated with test compounds. • Column 12 (comprising wells A12-H12): • A12-D12—Background value wells: Uninfected RBCs—blank control to obtain the background reading from RBCs without parasites. • E12-G12—Solvent effect wells: PRBCs without DMSO—to determine DMSO solvent effect on PRBCs by comparing these wells with column 11 wells. • H12-Non-radioactive well: PRBCs with cold hypoxanthine—(i) to carry out a thin blood film to determine parasitemia value after incubation by microscopy and (ii) to ensure that the parasites have grown properly during the assay. (200 μl of inoculum suspension was prepared as described above (Items 2 and 3) but with non-tritiated hypoxanthine instead of [3H]-hypoxanthine, then added to this well to a final volume of 250 μl). […]
row,SMILES,IC50
1,"Cc1[nH]c(C)c(-c2ccc(OCc3ccccc3C(F)(F)F)nc2)c(=O)c1Br [Example 4, 5-Bromo-2,6-dimethyl-6′-{[2-(trifluoromethyl)benzyl]oxy}-3,3′-bipyridin-4(1H)-one]",< 0.125 µg/mL
2,"Cc1[nH]c(C)c(-c2ccc(OCc3cccc(C(F)(F)F)c3)nc2)c(=O)c1Br [Example 2, 5-Bromo-2,6-dimethyl-6′-{[3-(trifluoromethyl)benzyl]oxy}-3,3′-bipyridin-4(1H)-one]",< 0.125 µg/mL
3,"Cc1[nH]c(C)c(-c2ccc(C#Cc3ccc(C(F)(F)F)cc3)nc2)c(=O)c1Br [Example 40, 5-Bromo-2,6-dimethyl-6′-{[4-(trifluoromethyl)phenyl]ethynyl}-3,3′-bipyridin-4(1H)-one]",< 0.125 µg/mL
4,"Cc1[nH]c(C)c(-c2ccc(-c3ccccc3Cl)nc2)c(=O)c1Cl [Example 35, 5-Chloro-6′-(2-chlorophenyl)-2,6-dimethyl-3,3′-bipyridin-4(1H)-one]",< 0.125 µg/mL
5,"Cc1[nH]c(C)c(-c2ccc(-c3cccc(Cl)c3)nc2)c(=O)c1Cl [Example 34, 5-Chloro-6′-(3-chlorophenyl)-2,6-dimethyl-3,3′-bipyridin-4(1H)-one]",< 0.125 µg/mL
6,"Cc1[nH]c(C)c(-c2ccc(CCc3ccc(F)cc3F)nc2)c(=O)c1Cl [Example 46, 5-Chloro-6′-{2-[2,4-difluorophenyl]ethyl}-2,6-dimethyl-3,3′-bipyridin-4(1H)-one]",< 0.125 µg/mL
7,"Cc1[nH]c(C)c(-c2ccc(-c3ccc(N(C)C)c(Br)c3)nc2)c(=O)c1Br [Example 71, 5-Bromo-6′-[3-bromo-4-(dimethylamino)phenyl]-2,6-dimethyl-3,3′-bipyridin-4(1H)one]",< 0.125 µg/mL
8,"Cc1[nH]c(C)c(-c2ccc(-c3ccc(OC(F)(F)F)cc3)nc2)c(=O)c1Br [Example 15, 5-Bromo-2,6-dimethyl-6′-{4-[(trifluoromethyl)oxy]phenyl}-3,3′-bipyridin-4(1H)-one]",< 0.125 µg/mL
9,"Cc1[nH]c(C)c(-c2ccc(OCc3cccc(C(F)(F)F)c3)nc2)c(=O)c1Cl [Example 9, 5-Chloro-2,6-dimethyl-6′-{[3-(trifluoromethyl)benzyl]oxy}-3,3′-bipyridin-4(1H)-one]",< 0.125 µg/mL
10,"Cc1[nH]c(C)c(-c2ccc(OCc3ccc(OC(F)(F)F)cc3)nc2)c(=O)c1Br [Example 1, 5-Bromo-2,6-dimethyl-6′-{[4-(trifluoromethoxy)benzyl]oxy}-3,3′-bipyridin-4(1H)-one]",< 0.125 µg/mL
11,"Cc1[nH]c(C)c(-c2ccc(-c3ccc(OCC(F)(F)F)cc3)nc2)c(=O)c1Cl [Example 62, 5-Chloro-2,6-dimethyl-6′-{4-[2,2,2-trifluoroethoxy]phenyl}-3,3′-bipyridin-4(1H)-one]",< 0.125 µg/mL
12,"Cc1[nH]c(C)c(-c2ccc(Oc3ccc(OC(F)(F)F)cc3)cc2)c(=O)c1Cl [Compound Y, 3-chloro-5-(4-(4-trifluoromethoxyphenoxy)phenyl)-2,6-dimethylpyridin-4(1H)-one, reference compound]",< 0.125 µg/mL
13,Cc1[nH]c(C)c(-c2ccc(-c3ccc4c(c3)OCO4)nc2)c(=O)c1Cl [Example 54],< 0.125 µg/mL
14,"Cc1[nH]c(C)c(-c2cnc(-c3ccc(C(F)(F)F)cc3)nc2)c(=O)c1Cl [Example 64, 3-Chloro-2,6-dimethyl-5-(5-(2-(4-trifluoromethylphenyl))pyrimidinyl)pyridin-4(1H)-one]",< 0.125 µg/mL
15,"Cc1[nH]c(C)c(-c2ccc(OCc3ccc(F)cc3)nc2)c(=O)c1Br [Example 6, 5-Bromo-6′-{[4-fluorobenzyl]oxy}-2,6-dimethyl-3,3′-bipyridin-4(1H)-one]",< 0.125 µg/mL
16,"Cc1[nH]c(C)c(-c2ccc(CCc3ccc(C(F)(F)F)cc3)cn2)c(=O)c1Cl [Example 52, 5′-Chloro-2′,6′-dimethyl-5-{2-[4-(trifluoromethyl)phenyl]ethyl}-2,3′-bipyridin-4′(1′H)-one]",< 0.125 µg/mL
17,"CCCCc1ccc(-c2ccc(-c3c(C)[nH]c(C)c(Br)c3=O)cn2)cc1.Cl [Example 39, 5-Bromo-6′-(4-n-butylphenyl)-2,6-dimethyl-3,3′-bipyridin-4(1H)-one]",< 0.125 µg/mL
18,"Cc1[nH]c(C)c(-c2ccc(OCc3cc(F)cc(F)c3)nc2)c(=O)c1Cl [Example 14, 5-Chloro-6′-{[3,5-difluorobenzyl]oxy}-2,6-dimethyl-3,3′-bipyridin-4(1H)-one]",< 0.125 µg/mL
19,"Cc1[nH]c(C)c(-c2ccc(-c3ccc(C(F)(F)F)cc3Cl)nc2)c(=O)c1Cl [Example 55, 5-chloro-6′-[2-chloro-4-(trifluoromethyl)phenyl]-2,6-dimethyl-3,3′-bipyridin-4(1H)-one]",< 0.125 µg/mL
20,"Cc1[nH]c(C)c(-c2ccc(OCc3ccc(OC(F)(F)F)cc3)nc2)c(=O)c1Cl [Example 8, 5-Chloro-2,6-dimethyl-6′-{[4-(trifluoromethoxy)benzyl]oxy}-3,3′-bipyridin-4(1H)-one]",< 0.125 µg/mL
21,"Cc1[nH]c(C)c(-c2ccc(-c3ccc(C(F)(F)F)cc3)nc2)c(=O)c1Cl [Example 30, 5-Chloro-2,6-dimethyl-6′-{4-[trifluoromethyl]phenyl}-3,3′-bipyridin-4(1H)-one]",< 0.125 µg/mL
22,"Cc1[nH]c(C)c(-c2ccc(Oc3cccc(C(F)(F)F)c3)cc2)c(=O)c1Cl [Compound Z, 3-Chloro-2,6-dimethyl-5-(4-{[3-(trifluoromethyl)phenyl]oxy}phenyl)-4(1H)pyridinone, reference compound]",< 0.125 µg/mL
